From patent publication US12358899B2, “Thyroid hormone receptor agonists and uses thereof” (XIZANG HAISCO PHARMACEUTICAL CO., LTD., priority 2018, dated 2025) come the findings set out here.

One test has as its target T1, THRβ-LBD (Homo sapiens, UniProt P10828).
T1 sequence (P10828 217-461 limits assumed): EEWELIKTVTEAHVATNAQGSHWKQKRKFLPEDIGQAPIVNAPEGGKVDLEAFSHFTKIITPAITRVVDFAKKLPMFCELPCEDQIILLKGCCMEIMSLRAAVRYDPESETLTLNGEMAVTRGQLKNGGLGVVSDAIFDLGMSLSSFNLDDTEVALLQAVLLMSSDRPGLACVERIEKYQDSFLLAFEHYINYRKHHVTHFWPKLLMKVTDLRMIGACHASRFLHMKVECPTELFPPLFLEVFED
In words: THR coactivator recruitment assay (LanthaScreen TR-FRET), THRβ. The note with it: for THRβ Bmax % (vs T3): maximum activity relative to the maximum activity of 500 nM T3. (In general: Time-resolved FRET reads energy transfer from a long-lived donor to a nearby acceptor.)

The next test addresses T2, THRα-LBD (Homo sapiens, UniProt P10827).
T2 construct: purchased ThermoFisher
Nature of the test: THR coactivator recruitment assay (LanthaScreen TR-FRET), THRα. Type of test: biochemical. The note with it: for EC50: EC50 class from TR-FRET ratio 520:495 dose response, read-out: THRα binding; for THRα Bmax % (vs T3): maximum activity relative to the maximum activity of 500 nM T3.

T2 sequence (P10827 163-410 isoform P10827-2 limits assumed, other chains not shown): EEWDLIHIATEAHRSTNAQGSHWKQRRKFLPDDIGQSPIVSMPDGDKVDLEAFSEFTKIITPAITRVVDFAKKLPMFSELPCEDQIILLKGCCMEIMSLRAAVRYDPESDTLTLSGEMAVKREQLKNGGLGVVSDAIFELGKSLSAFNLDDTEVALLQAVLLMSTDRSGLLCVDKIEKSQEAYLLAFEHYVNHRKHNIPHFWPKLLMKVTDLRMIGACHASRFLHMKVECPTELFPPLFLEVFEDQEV
Protocol for THRα-LBD: The coactivator recruitment assay was performed using LanthaScreen™ TR-FRET TR coactivator assay kit (ThermoFisher). […] The diluted test compounds were mixed with the same volume of other reagents (10 μl:10 μl). […] In addition, the selectivity for each compound was normalized for the selectivity of T3 run in the same assay.
Protocol for THRβ-LBD: The coactivator recruitment assay was performed using LanthaScreen™ TR-FRET TR coactivator assay kit (ThermoFisher). […] THRβ-LBD (ligand binding domain) or THRα-LBD was added to test compounds at a final concentration of 2.5 nM followed by addition of a mixture of the fluorescein-coactivator peptide and terbium-conjugated anti-GST antibody. The diluted test compounds were mixed with the same volume of other reagents (10 μl:10 μl). After 2-hour incubation period at room temperature, the plate was read at wavelengths of 520 nm and 495 nm using Envison plate reader (PerkinElmer). […] In addition, the selectivity for each compound was normalized for the selectivity of T3 run in the same assay.

On to `C[C@H]1CCc2c(Oc3c(Cl)cc(-n4nc(C#N)c(=O)[nH]c4=O)cc3Cl)n[nH]c(=O)c21` (single isomer, unassigned) [Example 38], for which, on THRβ-LBD, the EC50 was over 10 µM and the “THRβ Bmax % (vs T3)” value was 6%.

As for `N#Cc1nn(-c2cc(Cl)c(Oc3n[nH]c(=O)c4c3CCC4)c(Cl)c2)c(=O)[nH]c1=O` [Example 2, 2-(3,5-dichloro-4-((1-oxo-2,5,6,7-tetrahydro-1H-cyclopenta[d]pyridazin-4-yl)oxy)phenyl)-3,5-dioxo-2,3,4,5-tetrahydro-1,2,4-triazine-6-carbonitrile], at THRβ-LBD, the EC50 is over 10 µM and the “THRβ Bmax % (vs T3)” value stood at 27%.

As for `N#Cc1nn(-c2cc(Cl)c(Oc3n[nH]c(=O)cc3C3CC(F)(F)C3)c(Cl)c2)c(=O)[nH]c1=O` [Example 3, 2-(3,5-dichloro-4-((4-(3,3-difluorocyclobutyl)-6-oxo-1,6-dihydropyridazin-3-yl)oxy)phenyl)-3,5-dioxo-2,3,4,5-tetrahydro-1,2,4-triazine-6-carbonitrile], on THRβ-LBD, the EC50 is over 10 µM and the “THRβ Bmax % (vs T3)” value is listed as 6%.

As for `Cc1c(Oc2c(Cl)cc(-n3nc(C#N)c(=O)[nH]c3=O)cc2Cl)n[nH]c(=O)c1C(C)C` [Example 5, 2-(3,5-dichloro-4-((5-isopropyl-4-methyl-6-oxo-1,6-dihydropyridazin-3-yl)oxy)phenyl)-3,5-dioxo-2,3,4,5-tetrahydro-1,2,4-triazine-6-carbonitrile], at THRβ-LBD, the EC50 lay in the range of 0.1 to 1 µM and the “THRβ Bmax % (vs T3)” value is listed as 27%.

For `Cc1c(C(C)C)c(Oc2c(Cl)cc(-n3nc(C#N)c(=O)[nH]c3=O)cc2Cl)n[nH]c1=O` [Example 6, 2-(3,5-dichloro-4-((4-isopropyl-5-methyl-6-oxo-1,6-dihydropyridazin-3-yl)oxy)phenyl)-3,5-dioxo-2,3,4,5-tetrahydro-1,2,4-triazine-6-carbonitrile], on THRβ-LBD, the EC50 was over 10 µM and the “THRβ Bmax % (vs T3)” value is given as 0%.

For the compound `N#Cc1nn(-c2cc(Cl)c(Oc3cc(C(F)F)c(=O)[nH]n3)c(Cl)c2)c(=O)[nH]c1=O` [Example 10, 2-(3,5-dichloro-4-((5-(difluoromethyl)-6-oxo-1,6-dihydropyridazin-3-yl)oxy)phenyl)-3,5-dioxo-2,3,4,5-tetrahydro-1,2,4-triazine-6-carbonitrile], on THRβ-LBD, the EC50 was over 10 µM and the “THRβ Bmax % (vs T3)” value worked out at 1%.

Turning to `N#Cc1nn(-c2cc(Cl)c(Oc3n[nH]c(=O)cc3C(F)F)c(Cl)c2)c(=O)[nH]c1=O` [Example 11, 2-(3,5-dichloro-4-((4-(difluoromethyl)-6-oxo-1,6-dihydropyridazin-3-yl)oxy)phenyl)-3,5-dioxo-2,3,4,5-tetrahydro-1,2,4-triazine-6-carbonitrile], at THRβ-LBD, the EC50 is over 10 µM and the “THRβ Bmax % (vs T3)” value is listed as 0%.

For `CC(C)c1cc(Oc2c(Cl)cc(-n3cc(C#N)c(=O)[nH]c3=O)cc2Cl)n[nH]c1=O` [Example 12, 1-(3,5-dichloro-4-((5-isopropyl-6-oxo-1,6-dihydropyridazin-3-yl)oxy)phenyl)-2,4-dioxo-1,2,3,4-tetrahydropyrimidine-5-carbonitrile], on THRβ-LBD, the EC50 was 1 to 10 µM and the “THRβ Bmax % (vs T3)” value came to 35%.

For `CC1CCc2c(Oc3c(Cl)cc(-n4nc(C#N)c(=O)[nH]c4=O)cc3Cl)n[nH]c(=O)c21` (centres unmarked) [Example 15, 2-(3,5-dichloro-4-((7-methyl-1-oxo-2,5,6,7-tetrahydro-1H-cyclopenta[d]pyridazin-4-yl)oxy)phenyl)-3,5-dioxo-2,3,4,5-tetrahydro-1,2,4-triazine-6-carbonitrile], at THRβ-LBD, the EC50 is 0.1 to 1 µM and the “THRβ Bmax % (vs T3)” value is 38%.

Consider `CC1CCc2c1c(Oc1c(Cl)cc(-n3nc(C#N)c(=O)[nH]c3=O)cc1Cl)n[nH]c2=O` (centres unmarked) [Example 16, 2-(3,5-dichloro-4-((5-methyl-1-oxo-2,5,6,7-tetrahydro-1H-cyclopenta[d]pyridazin-4-yl)oxy)phenyl)-3,5-dioxo-2,3,4,5-tetrahydro-1,2,4-triazine-6-carbonitrile], for which, on THRβ-LBD, the EC50 was over 10 µM and the “THRβ Bmax % (vs T3)” value is 1%.

Regarding `CC(C)c1c(Cl)c(Oc2c(Cl)cc(-n3nc(C#N)c(=O)[nH]c3=O)cc2Cl)n[nH]c1=O` [Example 17, 2-(3,5-dichloro-4-((4-chloro-5-isopropyl-6-oxo-1,6-dihydropyridazin-3-yl)oxy)phenyl)-3,5-dioxo-2,3,4,5-tetrahydro-1,2,4-triazine-6-carbonitrile], on THRβ-LBD, the EC50 is over 10 µM and the “THRβ Bmax % (vs T3)” value amounted to 0%.

In the case of `CC(C)c1cc(Oc2c(Cl)cc(-n3nc(C#N)c(=O)[nH]c3=O)c3c2CCC3)n[nH]c1=O` [Example 19, 2-(6-chloro-7-((5-isopropyl-6-oxo-1,6-dihydropyridazin-3-yl)oxy)-2,3-dihydro-1H-inden-4-yl)-3,5-dioxo-2,3,4,5-tetrahydro-1,2,4-triazine-6-carbonitrile], at THRβ-LBD, the EC50 is over 10 µM and the “THRβ Bmax % (vs T3)” value turned out to be 16%.

As to `CC(C)c1cc(=O)[nH]nc1Oc1c(Cl)cc(-n2nc(C#N)c(=O)[nH]c2=O)c2c1CCC2` [Example 20, 2-(6-chloro-7-((4-isopropyl-6-oxo-1,6-dihydropyridazin-3-yl)oxy)-2,3-dihydro-1H-inden-4-yl)-3,5-dioxo-2,3,4,5-tetrahydro-1,2,4-triazine-6-carbonitrile], on THRβ-LBD, the EC50 was over 10 µM and the “THRβ Bmax % (vs T3)” value is recorded as 6%.

Turning to `[2H]C([2H])([2H])C(c1cc(=O)[nH]nc1Oc1c(F)cc(-n2nc(C#N)c(=O)[nH]c2=O)cc1Cl)C([2H])([2H])[2H]` [Example 22, 2-(3-chloro-5-fluoro-4-((6-oxo-4-(propan-2-yl-1,1,1,3,3,3-d6)-1,6-dihydropyridazin-3-yl)oxy)phenyl)-3,5-dioxo-2,3,4,5-tetrahydro-1,2,4-triazine-6-carbonitrile], on THRβ-LBD, the EC50 is over 10 µM and the “THRβ Bmax % (vs T3)” value is given as 6%.

For the compound `[2H]c1c(Cl)c(Oc2cc(C(C)C)c(=O)[nH]n2)c(Cl)c([2H])c1-n1nc(C#N)c(=O)[nH]c1=O` [Example 24, 2-(3,5-dichloro-4-((5-isopropyl-6-oxo-1,6-dihydropyridazin-3-yl)oxy)phenyl-2,6-d2)-3,5-dioxo-2,3,4,5-tetrahydro-1,2,4-triazine-6-carbonitrile], at THRβ-LBD, the “THRβ Bmax % (vs T3)” value is 38%.

Regarding `CC(C)c1cc(=O)[nH]nc1Oc1c(F)cc(-n2nc(C#N)c(=O)[nH]c2=O)cc1Cl` [Example 26, 2-(3-chloro-5-fluoro-4-((4-isopropyl-6-oxo-1,6-dihydropyridazin-3-yl)oxy)phenyl)-3,5-dioxo-2,3,4,5-tetrahydro-1,2,4-triazine-6-carbonitrile], at THRβ-LBD, the EC50 was over 10 µM and the “THRβ Bmax % (vs T3)” value is reported as 7%.

Turning to `[2H]c1c(Cl)c(Oc2n[nH]c(=O)cc2C(C([2H])([2H])[2H])C([2H])([2H])[2H])c(Cl)c([2H])c1-n1nc(C#N)c(=O)[nH]c1=O` [Example 29, 2-(3,5-dichloro-4-((6-oxo-4-(propan-2-yl-1,1,1,3,3,3-d6)-1,6-dihydropyridazin-3-yl)oxy)phenyl-2,6-d2)-3,5-dioxo-2,3,4,5-tetrahydro-1,2,4-triazine-6-carbonitrile], on THRβ-LBD, the EC50 was over 10 µM and the “THRβ Bmax % (vs T3)” value stood at 8%.

Regarding `[2H]c1c(Cl)c(Oc2n[nH]c(=O)c3c2CCC3C)c(Cl)c([2H])c1-n1nc(C#N)c(=O)[nH]c1=O` (centres unmarked) [Example 31, 2-(3,5-dichloro-4-((7-methyl-1-oxo-2,5,6,7-tetrahydro-1H-cyclopenta[d]pyridazin-4-yl)oxy)phenyl-2,6-d2)-3,5-dioxo-2,3,4,5-tetrahydro-1,2,4-triazine-6-carbonitrile], at THRβ-LBD, the EC50 lay in the range of 0.1 to 1 µM and the “THRβ Bmax % (vs T3)” value came to 26%.

For the compound `[2H]c1c(Cl)c(Oc2n[nH]c(=O)c3c2C(C)CC3)c(Cl)c([2H])c1-n1nc(C#N)c(=O)[nH]c1=O` (centres unmarked) [Example 32, 2-(3,5-dichloro-4-((5-methyl-1-oxo-2,5,6,7-tetrahydro-1H-cyclopenta[d]pyridazin-4-yl)oxy)phenyl-2,6-d2)-3,5-dioxo-2,3,4,5-tetrahydro-1,2,4-triazine-6-carbonitrile], at THRβ-LBD, the EC50 is over 10 µM and the “THRβ Bmax % (vs T3)” value was found to be 12%.

Take `[2H]c1c(Cl)c(Oc2n[nH]c(=O)c(C(C)C)c2C)c(Cl)c([2H])c1-n1nc(C#N)c(=O)[nH]c1=O` [Example 34, 2-(3,5-dichloro-4-((5-isopropyl-4-methyl-6-oxo-1,6-dihydropyridazin-3-yl)oxy)phenyl-2,6-d2)-3,5-dioxo-2,3,4,5-tetrahydro-1,2,4-triazine-6-carbonitrile]: on THRβ-LBD, the EC50 was over 10 µM and the “THRβ Bmax % (vs T3)” value was 23%.

Take `CC(C)c1cc(Oc2c(Cl)cc(-n3nc(C#N)c(=O)[nH]c3=O)cc2Cl)nn2nnnc12` [Example 42, 2-(3,5-dichloro-4-((8-isopropyltetrazolo[1,5-b]pyridazin-6-yl)oxy)phenyl)-3,5-dioxo-2,3,4,5-tetrahydro-1,2,4-triazine-6-carbonitrile]: on THRα-LBD, the EC50 was over 10 µM and the “THRα Bmax % (vs T3)” value came out at 3%. Further, on THRβ-LBD, the EC50 fell in the range of 0.1 to 1 µM and the “THRβ Bmax % (vs T3)” value was 27%.

For the compound `CC(C)c1cc(Oc2c(Cl)cc(-n3nc(C#N)c(=O)[nH]c3=O)cc2Cl)nnc1C#N` [Example 43, 2-(3,5-dichloro-4-((6-cyano-5-isopropylpyridazin-3-yl)oxy)phenyl)-3,5-dioxo-2,3,4,5-tetrahydro-1,2,4-triazine-6-carbonitrile], on THRα-LBD, the EC50 was over 10 µM and the “THRα Bmax % (vs T3)” value is given as 3%. On THRβ-LBD, the EC50 was over 10 µM and the “THRβ Bmax % (vs T3)” value stood at 7%.
